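96-well plates; 48 h exposure; 5 concentrations. Endpoints by linear interpolation between flanking doses. Not reached: highest tested concentration assigned. At the GI50, growth is halved. TGI: concentration producing complete growth inhibition.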
Assays:
Assay in all cases: DTP human tumour cell line panel, 48 h
[1] = tested on: A498 renal
[2] = tested on: ACHN renal
[3] = tested on: BT-549 breast
[4] = tested on: CAKI-1 renal
[5] = tested on: CCRF-CEM leukemia
[6] = tested on: COLO 205 colon
[7] = tested on: DU-145 prostate
[8] = tested on: EKVX NSCLC
[9] = tested on: HCC-2998 colon
[10] = tested on: HCT-15 colon
[11] = tested on: HL-60(TB) leukemia
[12] = tested on: HOP-92 NSCLC
[13] = tested on: HS 578T breast
[14] = tested on: HT29 colon
[15] = tested on: K-562 leukemia
[16] = tested on: MDA-MB-435
[17] = tested on: MOLT-4 leukemia
[18] = tested on: NCI-H460 lung
[19] = tested on: NCI/ADR-RES ovarian
[20] = tested on: OVCAR-4 ovarian
[21] = tested on: OVCAR-5 ovarian
[22] = tested on: RPMI-8226 leukemia
[23] = tested on: SF-268 CNS
[24] = tested on: SK-MEL-28 melanoma
[25] = tested on: SK-MEL-5 melanoma
[26] = tested on: SN12C renal
[27] = tested on: SNB-75 CNS
[28] = tested on: SR leukemia
[29] = tested on: SW-620 colon
[30] = tested on: T-47D breast
[31] = tested on: TK-10 renal
[32] = tested on: UACC-62 melanoma
[33] = tested on: UO-31 renal
[34] = tested on: HCT-116 colon
[35] = tested on: IGROV1 ovarian
[36] = tested on: KM12 colon
[37] = tested on: LOX IMVI melanoma
[38] = tested on: M14 melanoma
[39] = tested on: MALME-3M melanoma
[40] = tested on: MCF7 breast
[41] = tested on: MDA-MB-231 breast
[42] = tested on: NCI-H23 lung
[43] = tested on: SF-295 CNS
[44] = tested on: SF-539 CNS
[45] = tested on: SNB-19 CNS

[Cl][Ru].c1ccc(-c2cc(-c3ccccn3)nc(-c3ccccn3)c2)cc1.c1ccc(-c2ccnc3c2ccc2c(-c4ccccc4)ccnc23)cc1
GI50 [1]: 1930 nM | TGI [1]: 4560 nM | GI50 [2]: 3230 nM | TGI [2]: 25700 nM | GI50 [3]: 224 nM | TGI [3]: 869 nM | GI50 [4]: 3150 nM | TGI [4]: 26600 nM | GI50 [5]: 415 nM | GI50 [6]: 182 nM | TGI [6]: 335 nM | GI50 [7]: 529 nM | GI50 [8]: 352 nM | TGI [8]: 2360 nM | GI50 [9]: 356 nM | TGI [9]: 1450 nM | GI50 [10]: 2080 nM | TGI [10]: 4730 nM | GI50 [11]: 252 nM | TGI [11]: 696 nM | GI50 [12]: 139 nM | TGI [12]: 543 nM | GI50 [13]: 275 nM | TGI [13]: 919 nM | GI50 [14]: 333 nM | TGI [14]: 1310 nM | GI50 [15]: 301 nM | TGI [15]: 4660 nM | GI50 [16]: 322 nM | TGI [16]: 1010 nM | GI50 [17]: 332 nM | TGI [17]: 1620 nM | GI50 [18]: 351 nM | TGI [18]: 1120 nM | GI50 [19]: 31100 nM | TGI [19]: > 100000 nM | GI50 [20]: 424 nM | TGI [20]: 2500 nM | GI50 [21]: 396 nM | TGI [21]: 1710 nM | GI50 [22]: 232 nM | TGI [22]: 727 nM | GI50 [23]: 489 nM | GI50 [24]: 418 nM | TGI [24]: 1580 nM | GI50 [25]: 577 nM | TGI [25]: 1840 nM | GI50 [26]: 266 nM | TGI [26]: 915 nM | GI50 [27]: 179 nM | TGI [27]: 829 nM | TGI [28]: 1090 nM | GI50 [29]: 451 nM | TGI [29]: 1670 nM | GI50 [30]: 270 nM | TGI [30]: 1070 nM | GI50 [31]: 1600 nM | TGI [31]: 4150 nM | GI50 [32]: 292 nM | TGI [32]: 1170 nM | GI50 [33]: 2620 nM | TGI [33]: > 45800 nM

CCOC(=O)c1c(NC(=O)c2cccc(C(F)(F)F)c2)sc2c(CN3CCN(C)CC3)c(O)ccc12
GI50 [2]: 1820 nM | TGI [2]: 3310 nM | GI50 [5]: 1510 nM | TGI [5]: 4220 nM | GI50 [8]: 1690 nM | TGI [8]: 3310 nM | GI50 [9]: 1650 nM | TGI [9]: 3370 nM | GI50 [34]: 1000 nM | TGI [34]: 2430 nM | GI50 [10]: 1610 nM | TGI [10]: 3130 nM | GI50 [13]: 1890 nM | TGI [13]: 4510 nM | GI50 [35]: 1700 nM | TGI [35]: 3270 nM | GI50 [36]: 1860 nM | TGI [36]: 3400 nM | GI50 [37]: 1760 nM | TGI [37]: 3310 nM | GI50 [38]: 1880 nM | TGI [38]: 3530 nM | GI50 [39]: 1650 nM | TGI [39]: 3150 nM | GI50 [40]: 1510 nM | TGI [40]: 3030 nM | GI50 [41]: 1650 nM | TGI [41]: 3110 nM | GI50 [16]: 1690 nM | TGI [16]: 3100 nM | GI50 [42]: 1760 nM | TGI [42]: 3280 nM | GI50 [21]: 1500 nM | TGI [21]: 2850 nM | GI50 [43]: 1700 nM | TGI [43]: 3250 nM | GI50 [44]: 1620 nM | TGI [44]: 3060 nM | GI50 [24]: 1720 nM | TGI [24]: 3150 nM | GI50 [25]: 1790 nM | TGI [25]: 3400 nM | GI50 [26]: 1670 nM | TGI [26]: 3160 nM | GI50 [45]: 1720 nM | TGI [45]: 3310 nM | GI50 [32]: 1760 nM | TGI [32]: 3270 nM | GI50 [33]: 1520 nM | TGI [33]: 3000 nM

Source: PubChem BioAssay (NCI)
